Reference: US5728686A, “Alkylxanthine phosphonates and alkylxanthine phosphine oxides and their use as pharmaceuticals” (Hoechst Aktiengesellschaft, priority 1996, dated 1998)
≈ marks a conversion by molar mass, not a printed value.

Assays:
[1] = test system: isolated guinea pig lung strips, leukotriene D4 (LTD4); test: antagonist of LTD4-induced contraction of isolated guinea pig lung strips; type: cell-based; conditions: Cavia porcellus, read-out: Anticontractile action (lung), LTD4: concentration range corresponding to the IC50 value
Excerpt: 4. Activity as an antagonist of the contraction of isolated guinea pig lung strips
The test carried out is based on the same principle as the test indicated in the pharmacological test 3; however, lung strips are used here.
(§1) Preparation of the organ sections and experimental procedure:
The guinea pig is sacrificed under laughing gas anaesthesia. The entire pulmonary tract is exposed starting from the trachea. The lobes of the lung are cut in a circular fashion such that 3 mm wide strips are formed. The strips of the upper lobes are divided in order to obtain a total of six approximately equal size strips. The strips are suspended in the organ baths under a preload of 4 g. The nutrient solutions used are modified Krebs Henseleit solutions. When using "Platelet activating factor" (PAF) as an […], the composition of this solution corresponds to that for the agonist SP in "Test 3"; for the agonist LTD4 a Krebs Henseleit solution as in the case of the agonist KCl (Test 3) is used. 95% by volume O2, 5% by volume CO2 is used for bubbling through the bath; the bath temperature is 37° C. The experimental procedure is carried out in a therapeutically cumulative methodology, using the dosage graduations 1, 3, 6 and 10 μg/ml.
The experimental animals, organ bath, vehicles and manner of administration correspond to that stated in pharmacological test 3.
All numerical values are indicated in the unit μg/ml and relate to the concentration range of tested compound of the formula I (see example numbers in Table 1) which is necessary in order to cause a contraction which corresponds to the IC50 value.

[2] = test system: phosphodiesterase III; test: inhibition of phosphodiesterase III activity; type: biochemical; conditions: at 100 μM
Protocol: 5. Inhibition of phosphodiesterase III activity
The test is carried out using phosphodiesterase from Boehringer Mannheim (Mannheim, Germany), Order No. 108 243 according to the method of T. SAEKI, I. SAITO, Biochem. Pharm. 46, No. 5, […], pages 833-839.
All numerical values are indicated in % inhibition of the enzyme activity at 100 μM of the corresponding compound of the formula I.

[3] = test system: isolated guinea pig trachea, agonist PGF2α; test: antagonist of PGF2α-induced contraction of isolated guinea pig trachea; type: cell-based; conditions: Cavia porcellus, 37° C., read-out: Anticontractile action (trachea), PGF2α: concentration range for dilatation corresponding to ED50 range
Excerpt: 3. Activity as antagonist of the contraction of isolated guinea pig trachea
The compounds of the formula I are used as antagonists of the contraction of isolated guinea pig trachea. The agonists employed were PGF2α (Upjohn, Germany), calcium ionophore A23187 (Calbiochem, Bad Soden, Germany), and substance P (American Peptide Comp., USA):
Inhibition of contractions which are induced by this cyclooxygenase product is only possible by competitive antagonism at the receptor or of the subsequent signal pathway.
as §1
The guinea pig is sacrificed by means of terminal laughing gas anaesthesia. The trachea is exposed along its entire length and cut into 15 individual cartilage rings. 5 rings in each case are tied together to give a chain and fixed in the organ bath under a preload of 3 g. After an equilibration time of 45 minutes, a contraction is produced using the agonist. The antagonist (test preparation) is added cumulatively on the plateau of the maximum. Evaluation is carried out in % force change relative to the contraction maximum. The experimental procedure is carried out at 37° C.; the physiological nutrient solution used is a modified Krebs-Henseleit solution through which is bubbled 95% by volume of O2, 5% by volume of CO2.
Experimental animals: albino guinea pigs (Hattersheim Animal Breeding Institute, Kastengrund, Germany), weight: 200 to 300 g, sex male or female.
Vehicle: double-distilled water, ethanol or isopropanol; administration: into the organ bath number of administration: cumulative, in SP individual doses
All numerical values are indicated in the unit μg/ml and relate to the concentration range of the tested compound of the formula I according to the invention (see example numbers in Table 1) which is necessary in order to cause a dilatation which corresponds to the ED50 range.

[4] = test system: muscle group (gastrocnemius, plantaris and soleus) of the immobilized right rear extremity; test: rat muscle function test: direct electrical stimulation of muscle group after 3 weeks' immobilization; type: in vivo, male Wistar rats; conditions: isotonic stimulation; oral, 1x per day for 3 weeks, as a rule 25 mg/kg; control approx. -25%; ≤-12% classified as active
Outline: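 Male Wistar rats (about 300 g) had the right hindlimb immobilized in a plastic cast for 3 weeks while dosed orally once daily, usually 25 mg/kg in carboxymethylcellulose. Under pentobarbital, the gastrocnemius/plantaris/soleus group was stimulated directly: isometric force (0.5N preload, 15 min) as area-under-curve, and isotonic work (body-weight preload, 15 min) in J; results as Δ% immobilized vs contralateral muscle.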

CCOP(=O)(CCCn1cnc2c1c(=O)[nH]c(=O)n2C)OCC [Example 2, Diethyl [4-(3-methylxanthin-7-yl)propyl]phosphonate]
IC50 [1]: 3 to 6 µg/mL (≈ 8.71 to 17.4 µM)
PDE III Inhibition [2]: 65%
EC50 [3]: > 10 µg/mL
Work (performed work, right/left difference) [4]: +5 Δ %
